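Each compound was tested at five concentrations against cells in 96-well plates for 48 hours. At the GI50, growth is halved.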 Calls of active or inactive are those of the source. No stated cut-off is given here; in the data, active = GI50 up to about 1.1 µM and inactive = higher.
Experiments:
Assay in all cases: DTP human tumour cell line panel, 48 h
[1] = system: SNB-75
[2] = system: A549
[3] = system: SF-539
[4] = system: HOP-62
[5] = system: NCI-H23
[6] = system: SF-295
[7] = system: Hs-578T
[8] = system: SR
[9] = system: NCI-H226
[10] = system: HOP-92
[11] = system: MCF7
[12] = system: SK-MEL-5
[13] = system: PC-3
[14] = system: RXF 393
[15] = system: LOX IMVI
[16] = system: SF-268
[17] = system: NCI/ADR-RES
[18] = system: UACC-257
[19] = system: OVCAR-3
[20] = system: CCRF-CEM
[21] = system: NCI-H460
[22] = system: 786-0
[23] = system: HT-29
[24] = system: U-251
[25] = system: OVCAR-8
[26] = system: MDA-N
[27] = system: Malme-3M
[28] = system: ACHN
[29] = system: MDA-MB-435
[30] = system: OVCAR-5
[31] = system: SK-OV-3
[32] = system: KM12
[33] = system: SK-MEL-2
[34] = system: MOLT-4
[35] = system: HCT-15
[36] = system: UACC-62
[37] = system: HCC 2998
[38] = system: SK-MEL-28
[39] = system: SW-620
[40] = system: HL-60
[41] = system: HCT-116
[42] = system: M14
[43] = system: EKVX
[44] = system: CAKI-1
[45] = system: K562
[46] = system: SNB-19
[47] = system: NCI-H522
[48] = system: A498
[49] = system: MDA-MB-231
[50] = system: OVCAR-4
[51] = system: UO-31
[52] = system: COLO 205
[53] = system: TK-10
[54] = system: DU-145
[55] = system: SN12C
[56] = system: BT-549
[57] = system: IGROV-1

O=C1NC(O)c2ccccc2O1 (centres undefined)
GI50 [1]: > 100 µM (inactive)
GI50 [2]: > 100 µM (inactive)
GI50 [3]: > 100 µM (inactive)
GI50 [4]: > 100 µM (inactive)
GI50 [5]: > 100 µM (inactive)
GI50 [6]: > 100 µM (inactive)
GI50 [7]: > 100 µM (inactive)
GI50 [8]: > 100 µM (inactive)
GI50 [9]: > 100 µM (inactive)
GI50 [10]: > 100 µM (inactive)
GI50 [11]: > 100 µM (inactive)
GI50 [12]: > 100 µM (inactive)
GI50 [13]: > 100 µM (inactive)
GI50 [14]: > 100 µM (inactive)
GI50 [15]: > 100 µM (inactive)
GI50 [16]: > 100 µM (inactive)
GI50 [17]: > 100 µM (inactive)
GI50 [18]: > 100 µM (inactive)
GI50 [19]: > 100 µM (inactive)
GI50 [20]: > 100 µM (inactive)
GI50 [21]: > 100 µM (inactive)
GI50 [22]: > 100 µM (inactive)
GI50 [23]: > 100 µM (inactive)
GI50 [24]: > 100 µM (inactive)
GI50 [25]: > 100 µM (inactive)
GI50 [26]: > 100 µM (inactive)
GI50 [27]: > 100 µM (inactive)
GI50 [28]: > 100 µM (inactive)
GI50 [29]: > 100 µM (inactive)
GI50 [30]: > 100 µM (inactive)
GI50 [31]: > 100 µM (inactive)
GI50 [32]: > 100 µM (inactive)
GI50 [33]: > 100 µM (inactive)
GI50 [34]: > 100 µM (inactive)
GI50 [35]: > 100 µM
GI50 [36]: > 100 µM (inactive)
GI50 [37]: > 100 µM (inactive)
GI50 [38]: > 100 µM (inactive)
GI50 [39]: > 100 µM (inactive)
GI50 [40]: > 100 µM (inactive)
GI50 [41]: > 100 µM (inactive)
GI50 [42]: > 100 µM (inactive)
GI50 [43]: > 100 µM (inactive)
GI50 [44]: > 100 µM (inactive)
GI50 [45]: > 100 µM (inactive)
GI50 [46]: > 100 µM (inactive)
GI50 [47]: > 100 µM (inactive)
GI50 [48]: > 100 µM (inactive)
GI50 [49]: > 100 µM (inactive)
GI50 [50]: > 100 µM (inactive)
GI50 [51]: > 100 µM (inactive)
GI50 [52]: > 100 µM (inactive)
GI50 [53]: > 100 µM (inactive)
GI50 [54]: > 100 µM (inactive)
GI50 [55]: > 100 µM (inactive)
GI50 [56]: > 100 µM (inactive)
GI50 [57]: > 100 µM (inactive)

Cc1csc(N/C=C2\C(=O)Oc3ccccc3C2=O)n1
GI50 [1]: 10.4 µM (inactive)
GI50 [2]: 38.7 µM (inactive)
GI50 [3]: 26.9 µM (inactive)
GI50 [5]: 18.2 µM (inactive)
GI50 [7]: 20.1 µM (inactive)
GI50 [9]: 24.2 µM (inactive)
GI50 [10]: 17.9 µM (inactive)
GI50 [11]: 25.9 µM (inactive)
GI50 [12]: 23.9 µM (inactive)
GI50 [13]: 30.2 µM (inactive)
GI50 [15]: 22.1 µM (inactive)
GI50 [16]: 26.5 µM (inactive)
GI50 [17]: 35.7 µM (inactive)
GI50 [18]: 45.2 µM (inactive)
GI50 [19]: 26.7 µM (inactive)
GI50 [20]: 35.8 µM (inactive)
GI50 [22]: 34.8 µM (inactive)
GI50 [23]: 36 µM (inactive)
GI50 [24]: 26.2 µM (inactive)
GI50 [25]: 32 µM (inactive)
GI50 [26]: 33.2 µM (inactive)
GI50 [27]: 20.5 µM (inactive)
GI50 [28]: 9.02 µM (inactive)
GI50 [29]: 24.9 µM (inactive)
GI50 [30]: 58.6 µM (inactive)
GI50 [31]: 7.05 µM (inactive)
GI50 [32]: 40 µM (inactive)
GI50 [33]: 13.4 µM (inactive)
GI50 [34]: 41 µM (inactive)
GI50 [35]: 22.5 µM
GI50 [36]: 24.6 µM (inactive)
GI50 [39]: 33.2 µM (inactive)
GI50 [41]: 28.4 µM (inactive)
GI50 [42]: 35.8 µM (inactive)
GI50 [43]: 21.3 µM (inactive)
GI50 [44]: 19.8 µM (inactive)
GI50 [45]: 81.7 µM (inactive)
GI50 [46]: 33.7 µM (inactive)
GI50 [47]: 26.4 µM (inactive)
GI50 [49]: 20.2 µM (inactive)
GI50 [50]: 32.7 µM (inactive)
GI50 [51]: 11.7 µM (inactive)
GI50 [52]: 35 µM (inactive)
GI50 [53]: 17.1 µM (inactive)
GI50 [54]: 29 µM (inactive)
GI50 [56]: 25.6 µM (inactive)
GI50 [57]: 24.7 µM (inactive)

O=C1NNC2NC(=O)C3(NN2C1=O)c1ccccc1-c1ccccc13 (centres undefined)
GI50 [1]: > 100 µM (inactive)
GI50 [2]: > 100 µM (inactive)
GI50 [3]: > 100 µM (inactive)
GI50 [4]: > 100 µM (inactive)
GI50 [5]: > 100 µM (inactive)
GI50 [6]: > 100 µM (inactive)
GI50 [7]: > 100 µM (inactive)
GI50 [8]: > 100 µM (inactive)
GI50 [9]: > 100 µM (inactive)
GI50 [10]: > 100 µM (inactive)
GI50 [11]: > 100 µM (inactive)
GI50 [12]: > 100 µM (inactive)
GI50 [13]: > 100 µM (inactive)
GI50 [14]: > 100 µM (inactive)
GI50 [15]: > 100 µM (inactive)
GI50 [16]: > 100 µM (inactive)
GI50 [17]: > 100 µM (inactive)
GI50 [18]: > 100 µM (inactive)
GI50 [19]: > 100 µM (inactive)
GI50 [20]: > 100 µM (inactive)
GI50 [21]: > 100 µM (inactive)
GI50 [22]: > 100 µM (inactive)
GI50 [23]: > 100 µM (inactive)
GI50 [24]: > 100 µM (inactive)
GI50 [25]: > 100 µM (inactive)
GI50 [26]: > 100 µM (inactive)
GI50 [27]: > 100 µM (inactive)
GI50 [28]: > 100 µM (inactive)
GI50 [29]: > 100 µM (inactive)
GI50 [30]: > 100 µM (inactive)
GI50 [31]: > 100 µM (inactive)
GI50 [33]: > 100 µM (inactive)
GI50 [35]: > 100 µM
GI50 [36]: > 100 µM (inactive)
GI50 [37]: > 100 µM (inactive)
GI50 [38]: > 10 µM (inactive)
GI50 [39]: > 100 µM (inactive)
GI50 [40]: > 100 µM (inactive)
GI50 [41]: > 100 µM (inactive)
GI50 [42]: > 100 µM (inactive)
GI50 [43]: > 100 µM (inactive)
GI50 [44]: > 100 µM (inactive)
GI50 [45]: > 100 µM (inactive)
GI50 [46]: > 100 µM (inactive)
GI50 [47]: > 100 µM (inactive)
GI50 [48]: > 100 µM (inactive)
GI50 [49]: > 100 µM (inactive)
GI50 [50]: > 100 µM (inactive)
GI50 [51]: > 100 µM (inactive)
GI50 [52]: > 100 µM (inactive)
GI50 [53]: > 100 µM (inactive)
GI50 [54]: > 100 µM (inactive)
GI50 [55]: > 100 µM (inactive)
GI50 [56]: > 100 µM (inactive)
GI50 [57]: > 100 µM (inactive)

— ChEMBL document CHEMBL1201862, “PubChem BioAssay data set” (2004)
